Here are results for four molecules from patent US7812022B2 (GlaxoSmithKline LLC, priority 2004, dated 2010).

The test system of assay [1] is BT474 and HN5 tumor cell lines. Kind of assay: Celltiter Glo growth inhibition assay (cellular Method B). The format is cell-based. Conditions: Homo sapiens, BT-474, 72 h, 3 days, read-out: Activity (Method): growth inhibition IC50 class. On the procedure:
(§1) Human breast tumor cells (BT474) were cultured in RPMI, (Invitrogen, 22400) containing 10% fetal bovine serum (FBS). Human head and neck tumor cells (HN5) were cultured in low glucose DMEM (Invitrogen, 12320) containing 10% FBS. Human colon tumor cells (Colo205) were cultured in DMEM (Invitrogen, 10564) containing 10% FBS. All cell lines were maintained at 37° C. in a humidified 5% CO2, 95% air incubator. Cells were harvested using trypsin/EDTA, counted using a haemocytometer, and plated in 30 microliters of the appropriate media described above, at the following densities, in a half area, black-walled, 96-well tissue culture plate (Corning 3882): BT474 3,000 cells/well, HN5 500 cells/well and Colo205 cells, 3,000 cells/well. The next day, compounds were diluted in DMEM containing […] gentamicin, from 10 mM stock solutions in DMSO. 30 microliters/well of these dilutions were added to the 30 microliters/well of media currently on the cell plates. Medium containing 0.6% DMSO was added to control wells. The final concentration of DMSO in all wells was 0.3%. Cells were incubated at 37° C., 5% CO2 for 3 days. Cell biomass was estimated using Celltiter Glo (Promega G7571). Briefly, plates were removed from the incubator and allowed to equilibrate to rt for 30 minutes. 60 microliters of Celltiter Glo reagent were added to each well of the treated cells and plates were shaken on an orbital plate shaker for 2 min. Plates were incubated without shaking for 30 more min and read in a luminometer with an integration time of 0.5 seconds per well. Percent inhibition of cell growth was calculated relative to vehicle treated control wells. Concentration of compound that inhibits 50% of vehicle control cell growth (IC50) was interpolated using nonlinear regression (Levenberg-Marquardt) and the equation, y=Vmax*(1−(x/(K+x)))+Y2, where “K” was equal to the IC50.
Background: ATP-based viability assays read luminescence as a measure of living cells.

The target of a further assay is T1, ErbB2 or EGFR.
T1 construct: enzymes purified from a baculovirus expression system; Reagent production was conducted essentially as described in Brignola, P. S., et al, (2002) J. Biol. Chem. 277(2): 1576-1585
Kind of assay: ErbB family substrate phosphorylation enzyme assay (HTRF), Method A or Method B. In kind it is biochemical. The conditions noted are these: Method B: enzyme mix pre-incubated with compound 1 hour at 20° C., started with substrate mix. The procedure, abridged: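 Baculovirus-expressed EGFR or ErbB2 (0.8 or 10 nM in enzyme mix) phosphorylates biotinylated Peptide C with 20 µM ATP and 0.8 µM peptide (substrate-mix levels), MnCl2, pH 7.5. Reaction ran 90 min at 20 °C with EDTA stop and HTRF anti-phosphotyrosine read. Method A: enzyme added last; Method B: 1 h enzyme–compound preincubation.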
Background: Time-resolved FRET reads energy transfer from a long-lived donor to a nearby acceptor.

A further assay concerns Colo205 tumor cell lines. The experiment in a line: Celltiter Glo growth inhibition assay (cellular Method B), Colo205. In kind it is cell-based. The conditions noted are these: Homo sapiens, COLO 205, 72 h, 3 days, read-out: Activity (Method): growth inhibition IC50 class. The method, then:
as §1

As a reminder, the IC50 is the point on the concentration scale where inhibition reaches its midpoint. Turning to `O=C(Nc1cccc(-c2nn3cc(C(F)(F)F)ccc3c2-c2nc(Nc3cccc(F)c3)ncc2F)c1)c1c(F)cccc1F` [Example 193, 2,6-Difluoro-N-{3-[3-{5-fluoro-2-[(3-fluorophenyl)amino]-4-pyrimidinyl}-6-(trifluoromethyl)pyrazolo[1,5-a]pyridin-2-yl]phenyl}benzamide], the IC50 (in assay [1]; in the assay with Colo205 tumor cell lines) was greater than 1000 nM in each case. Moreover, the “Activity (Method): pIC50 class against ErbB2 or EGFR” value (“Activity (Method): pIC50 class” for short) at ErbB2 or EGFR is “+ (B) (no pIC50 measurement greater than 6 against either ErbB2 or EGFR)”.

Regarding `NCc1cccc(Nc2nccc(-c3c(-c4cccc(NC(=O)c5cc(F)ccc5F)c4)nn4ccccc34)n2)c1` [Example 184, N-{3-[3-(2-{[3-(Aminomethyl)phenyl]amino}-4-pyrimidinyl)pyrazolo[1,5-a]pyridin-2-yl]phenyl}-2,5-difluorobenzamide], the IC50 in assay [1] was less than 100 nM; with Colo205 tumor cell lines, greater than 1000 nM. Further, the “Activity (Method): pIC50 class” value on ErbB2 or EGFR is “+++ B) (at least one pIC50 measurement of greater than 7 against either ErbB2 or EGFR)”.

On to `CN(C)C1Cc2ccc(Nc3nccc(-c4c(-c5ccc(F)c(NC(=O)c6c(F)cccc6F)c5)nn5ccccc45)n3)cc2C1.O=C(O)C(F)(F)F` (stereo not drawn) [Example 181, N-{5-[3-(2-{[2-(Dimethylamino)-2,3-dihydro-1H-inden-5-yl]amino}-4-pyrimidinyl)pyrazolo[1,5-a]pyridin-2-yl]-2-fluorophenyl}-2,6-difluorobenzamide], for which the IC50 in assay [1] was less than 100 nM; in the assay with Colo205 tumor cell lines, 100 to 1000 nM. For the same molecule, at ErbB2 or EGFR, the “Activity (Method): pIC50 class” value is “+++ (B) (at least one pIC50 measurement of greater than 7 against either ErbB2 or EGFR)”.

Regarding `CN(C)CCOc1cccc(Nc2nccc(-c3c(-c4cccc(NC(=O)c5c(F)cccc5F)c4)nn4cc(C(F)(F)F)ccc34)n2)c1` [Example 194, N-{3-[3-{2-[(3-{[2-(Dimethylamino)ethyl]oxy}phenyl)amino]-4-pyrimidinyl}-6-(trifluoromethyl)pyrazolo[1,5-a]pyridin-2-yl]phenyl}-2,6-difluorobenzamide], the IC50 in assay [1] is 100 to 1000 nM; in the assay on Colo205 tumor cell lines it was greater than 1000 nM. Besides, on ErbB2 or EGFR, the “Activity (Method): pIC50 class” value is recorded as “+++ (B) (at least one pIC50 measurement of greater than 7 against either ErbB2 or EGFR)”.
